In the experiment the target is T1, Human T-type calcium channel (Cav 3.2) (Homo sapiens, UniProt O95180).
T1 construct: Edward Perez-Reyes, University of Virginia, USA; host or cells: HEK293
T1 sequence (O95180 whole entry): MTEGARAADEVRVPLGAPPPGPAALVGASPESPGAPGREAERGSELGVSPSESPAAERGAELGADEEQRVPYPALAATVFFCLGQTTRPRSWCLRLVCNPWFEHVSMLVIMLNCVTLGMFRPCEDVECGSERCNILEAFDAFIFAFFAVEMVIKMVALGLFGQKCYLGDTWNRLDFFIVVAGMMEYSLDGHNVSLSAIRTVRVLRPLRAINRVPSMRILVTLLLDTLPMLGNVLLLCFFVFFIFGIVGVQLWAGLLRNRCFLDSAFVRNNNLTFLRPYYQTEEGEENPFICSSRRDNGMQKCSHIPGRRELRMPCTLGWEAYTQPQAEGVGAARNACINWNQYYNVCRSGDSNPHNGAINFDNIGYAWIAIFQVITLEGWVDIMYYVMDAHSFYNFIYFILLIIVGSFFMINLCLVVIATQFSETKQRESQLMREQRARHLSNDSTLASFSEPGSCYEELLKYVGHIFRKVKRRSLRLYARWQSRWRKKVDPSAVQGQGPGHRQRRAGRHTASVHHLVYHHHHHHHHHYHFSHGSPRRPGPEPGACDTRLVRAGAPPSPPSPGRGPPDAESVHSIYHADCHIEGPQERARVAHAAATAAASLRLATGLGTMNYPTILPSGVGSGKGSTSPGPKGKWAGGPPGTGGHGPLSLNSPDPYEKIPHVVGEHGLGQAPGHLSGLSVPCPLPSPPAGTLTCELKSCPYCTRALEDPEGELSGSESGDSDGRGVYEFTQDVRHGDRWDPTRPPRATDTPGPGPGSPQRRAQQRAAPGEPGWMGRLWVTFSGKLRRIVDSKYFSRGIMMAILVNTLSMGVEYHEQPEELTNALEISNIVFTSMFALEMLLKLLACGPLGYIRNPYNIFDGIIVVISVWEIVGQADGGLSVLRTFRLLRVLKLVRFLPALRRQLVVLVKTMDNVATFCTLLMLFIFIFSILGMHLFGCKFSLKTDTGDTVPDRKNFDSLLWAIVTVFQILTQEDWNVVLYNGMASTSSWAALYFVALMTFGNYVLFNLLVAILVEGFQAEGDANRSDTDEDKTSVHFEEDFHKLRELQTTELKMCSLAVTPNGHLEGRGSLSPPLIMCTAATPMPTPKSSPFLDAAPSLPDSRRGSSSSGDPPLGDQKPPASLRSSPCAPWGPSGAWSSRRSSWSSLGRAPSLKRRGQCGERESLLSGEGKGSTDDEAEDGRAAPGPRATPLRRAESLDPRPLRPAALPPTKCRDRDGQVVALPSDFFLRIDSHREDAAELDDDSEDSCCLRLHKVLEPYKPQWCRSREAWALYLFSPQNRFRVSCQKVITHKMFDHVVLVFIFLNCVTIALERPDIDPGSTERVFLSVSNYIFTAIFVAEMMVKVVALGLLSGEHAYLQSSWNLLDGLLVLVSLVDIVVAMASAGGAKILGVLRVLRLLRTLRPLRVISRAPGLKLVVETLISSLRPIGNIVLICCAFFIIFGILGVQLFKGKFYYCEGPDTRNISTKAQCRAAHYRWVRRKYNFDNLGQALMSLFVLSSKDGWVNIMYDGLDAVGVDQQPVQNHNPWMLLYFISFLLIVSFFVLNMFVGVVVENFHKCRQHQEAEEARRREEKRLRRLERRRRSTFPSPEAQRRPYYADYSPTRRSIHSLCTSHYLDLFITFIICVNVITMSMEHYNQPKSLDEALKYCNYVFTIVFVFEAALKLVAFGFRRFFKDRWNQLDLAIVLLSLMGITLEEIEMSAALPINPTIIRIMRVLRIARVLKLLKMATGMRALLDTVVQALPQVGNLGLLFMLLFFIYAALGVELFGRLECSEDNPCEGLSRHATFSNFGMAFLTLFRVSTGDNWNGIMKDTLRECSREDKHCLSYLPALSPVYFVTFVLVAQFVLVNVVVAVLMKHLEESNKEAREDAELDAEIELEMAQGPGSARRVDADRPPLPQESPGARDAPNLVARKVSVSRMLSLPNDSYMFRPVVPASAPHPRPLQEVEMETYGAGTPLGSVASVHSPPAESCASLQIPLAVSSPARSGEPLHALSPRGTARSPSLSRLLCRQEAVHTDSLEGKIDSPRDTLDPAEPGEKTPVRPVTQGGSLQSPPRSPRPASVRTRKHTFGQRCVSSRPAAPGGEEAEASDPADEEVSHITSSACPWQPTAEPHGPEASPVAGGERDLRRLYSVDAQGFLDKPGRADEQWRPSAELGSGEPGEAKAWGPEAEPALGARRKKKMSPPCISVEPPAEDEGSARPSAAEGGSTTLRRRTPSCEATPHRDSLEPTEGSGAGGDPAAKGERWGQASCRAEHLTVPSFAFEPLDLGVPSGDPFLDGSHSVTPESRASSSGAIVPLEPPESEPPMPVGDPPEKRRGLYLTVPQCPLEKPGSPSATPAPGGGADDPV
Kind of experiment: Calcium Influx Inhibition Assay. The experiment is classed as cell-based. Conditions: Human T-type calcium channel (Cav 3.2) expressing HEK293 cells, FLIPR Calcium 4 fluorescence. On the procedure:
1. Calcium Influx Inhibition Assay
Human T-type calcium channel (Cav 3.2) expressing HEK293 cells were obtained from Prof. Edward Perez-Reyes, University of Virginia, USA. The calcium-sensitive fluorescent dye used was FLIPR Calcium 4 Assay Kit (Molecular Devices). To a black 96-well plate with a clear bottom coated with type I collagen, the human T-type calcium channel (Cav 3.2) expressing HEK293 cells were seeded and cultured overnight, and the culture medium was removed. A solution of the calcium-sensitive fluorescent dye was added, and the plate was incubated at 37° C. in an atmosphere of 5% carbon dioxide for 30 minutes. To the plate, a diluted solution of a compound was added, and the whole was further incubated at 37° C. in an atmosphere of 5% carbon dioxide for 30 minutes. While fluorescence was continuously analyzed from the bottom with a FlexStation 3 (Molecular Devices), a calcium solution was added. […] From the rise in the fluorescence from the base line, the inhibition percentage was calculated. The logarithms of compound concentrations were plotted with respect to the inhibition activities to give an IC50 value.
As to `CC(F)(F)c1ccc(Cn2cnc(N3CC=C(c4ccc(F)cc4)[C@@H](O)C3)nc2=O)s1` [compound 207], the IC50 was found to be 7.5 nM.

On to `O=c1nc(N2CCC(c3ccc(F)cc3)C(F)(F)C2)ncn1Cc1ccc(Cl)cc1` (stereo not shown) [466b], for which the IC50 came out at 570 nM.

Consider `O=c1nc(N2CC=C(c3ccc(F)cc3)C(O)C2)ncn1Cn1ccc(C(F)(F)C(F)(F)F)n1` (stereo not shown) [compound 194], for which the IC50 was determined as 9.9 nM.

As for `O=c1nc(Nc2nc(-c3ccc(F)c(F)c3)cs2)ncn1Cc1ccc(Cl)cc1` [compound 130], the 50% inhibitory concentration (IC50) turned out to be 77 nM.

On to `CN(C)Cc1nc(N2CCN(c3ccc(F)cc3)CC2)nc(=O)n1Cc1ccc(C(F)(F)F)s1` [compound 462], for which the IC50 turned out to be 610 nM.

As to `O=c1nc(N2CC=C(c3cn4c(n3)CCC4)CC2)ncn1Cc1ccc(C(F)(F)F)s1` [compound 283], the IC50 was found to be 510 nM.

As to `CC(C)(C)c1ccc(Cn2cnc(N3CC=C(c4ccc(F)cc4)CC3)nc2=O)cc1` [compound 183], the IC50 was determined as 41 nM.

Take `Cc1nc(N[C@H]2C[C@@H](c3ccc(F)cc3)C2)nc(=O)n1Cc1ccc(C(F)(F)F)s1` [compound 360]: the IC50 was 83 nM.

`CC(=O)OCc1nc(N2CC=C(c3ccc(F)cc3)[C@@H](O)C2)nc(=O)n1Cc1ccc(C(F)(F)F)s1` [compound 457]: the IC50 stood at 13 nM.

Take `O=c1nc(NC2CCC3(c4ccc(F)cc4)CC23)ncn1Cc1ccc(Cl)cc1` (stereo not shown) [compound 127]: the IC50 was determined as 30 nM.

Broadly, the IC50 is the concentration at which inhibition is half-maximal.

The values above are taken from US9403798B2, “Triazinone compound and T-type calcium channel inhibitor” (NISSAN CHEMICAL INDUSTRIES, LTD., priority 2012, dated 2016).
